The record followed here is ChEMBL document CHEMBL5390258, “Recent Progress and Prospects of Small Molecules for NLRP3 Inflammasome Inhibition” (J Med Chem, 2023).

Test [1] has as its target T1, NACHT, LRR and PYD domains-containing protein 3 (Homo sapiens, UniProt Q96P20). Briefly: Inhibition of NLRP3 in human THP-1 cells assessed as reduction in IL-1beta production. Type of test: cell-based.
Test [2] concerns the target T1, NACHT, LRR and PYD domains-containing protein 3. The experiment in a line: Inhibition of NLRP3 in human PBMC cells assessed as reduction in TNF alpha level preincubated for 30 mins followed by LPS addition measured after 6 hrs. Type of test: cell-based.
Test [3] has as its system THP-1. Briefly: Induction of pyroptosis in human THP-1 cells. Type of test: functional, cell-based.
Test [4] deals with T1, NACHT, LRR and PYD domains-containing protein 3. Briefly: Inhibition of NLRP3 in human THP-1 cells assessed as reduction in IL-1beta production measured after 3 hrs by resazurin staining based assay. Type of test: cell-based. In general terms: Alamar Blue is a resazurin reagent that responds to reducing activity.
Test [5] shares this target. The experiment in a line: Inhibition of NLRP3 in human PBMC cells assessed as reduction in IL-1beta production preincubated for 30 mins followed by LPS addition measured after 6 hrs. Type of test: cell-based.
The target is the same in test [6]. Briefly: Inhibition of NLRP3 in human THP-1 cells assessed as reduction in IL-1beta production measured after 3 hrs. Type of test: cell-based.
Test [7] shares this target. The experiment in a line: Inhibition of NLRP3 in human Whole blood cell assessed as reduction in IL-1beta production incubated for overnight in presence of ATP by ELISA. Type of test: tissue-based. For orientation: In an ELISA, binding on a coated surface is turned into a signal by an enzyme label.
Test [8] has the same target. Briefly: Inhibition of NLRP3 in human THP-1 cells assessed as reduction in IL-1beta production pre incubated for 3 hrs followed by nigericin addition measured after 1 hrs by resazurin staining based assay. Type of test: cell-based.
Test [9] shares this target. Briefly: Inhibition of NLRP3 in human THP-1 cells assessed as reduction in IL-1beta production measured after 1 hrs by ELISA assay. Type of test: cell-based.
Test [10] shares this target. Briefly: Inhibition of NLRP3 in LPS induced human THP-1 cells assessed as reduction in IL-1beta production preincubated for 3 hrs followed by nigericin addition measured after 1 hrs by resazurin staining based assay. Type of test: cell-based.
Test [11] concerns the target NACHT, LRR and PYD domains-containing protein 3 (Mus musculus, UniProt Q8R4B8). Briefly: Inhibition of NLRP3 in LPS induced mouse BMDM cells assessed as reduction in IL-1beta production measured after 30 mins by ELISA assay. Type of test: cell-based.
The target of test [12] is T1, NACHT, LRR and PYD domains-containing protein 3. The experiment in a line: Inhibition of NLRP3 in human THP-1 cells assessed as reduction in IL-1beta production measured after 3 hrs by AlphaLISA assay. Type of test: cell-based. Background: Bead proximity is the source of the signal in Alpha formats.
Test [13] has the same target. Briefly: Inhibition of NLRP3 in LPS induced human Whole blood cell assessed as reduction in IL-1beta production preincubated for 3 hrs followed by nigericin measured after 1 hrs by resazurin staining based assay. Type of test: tissue-based.
Test [14] has as its system THP-1. The experiment in a line: Induction of pyroptosis in human THP-1 cells by AlphaLisa assay. Type of test: functional, cell-based.
For test [15], the target named is T1, NACHT, LRR and PYD domains-containing protein 3. Briefly: Inhibition of NLRP3 in human THP-1 cells assessed as reduction in IL-1beta production by ELISA. Type of test: cell-based.

T1 sequence (Q96P20 whole entry, the tested form may be a part): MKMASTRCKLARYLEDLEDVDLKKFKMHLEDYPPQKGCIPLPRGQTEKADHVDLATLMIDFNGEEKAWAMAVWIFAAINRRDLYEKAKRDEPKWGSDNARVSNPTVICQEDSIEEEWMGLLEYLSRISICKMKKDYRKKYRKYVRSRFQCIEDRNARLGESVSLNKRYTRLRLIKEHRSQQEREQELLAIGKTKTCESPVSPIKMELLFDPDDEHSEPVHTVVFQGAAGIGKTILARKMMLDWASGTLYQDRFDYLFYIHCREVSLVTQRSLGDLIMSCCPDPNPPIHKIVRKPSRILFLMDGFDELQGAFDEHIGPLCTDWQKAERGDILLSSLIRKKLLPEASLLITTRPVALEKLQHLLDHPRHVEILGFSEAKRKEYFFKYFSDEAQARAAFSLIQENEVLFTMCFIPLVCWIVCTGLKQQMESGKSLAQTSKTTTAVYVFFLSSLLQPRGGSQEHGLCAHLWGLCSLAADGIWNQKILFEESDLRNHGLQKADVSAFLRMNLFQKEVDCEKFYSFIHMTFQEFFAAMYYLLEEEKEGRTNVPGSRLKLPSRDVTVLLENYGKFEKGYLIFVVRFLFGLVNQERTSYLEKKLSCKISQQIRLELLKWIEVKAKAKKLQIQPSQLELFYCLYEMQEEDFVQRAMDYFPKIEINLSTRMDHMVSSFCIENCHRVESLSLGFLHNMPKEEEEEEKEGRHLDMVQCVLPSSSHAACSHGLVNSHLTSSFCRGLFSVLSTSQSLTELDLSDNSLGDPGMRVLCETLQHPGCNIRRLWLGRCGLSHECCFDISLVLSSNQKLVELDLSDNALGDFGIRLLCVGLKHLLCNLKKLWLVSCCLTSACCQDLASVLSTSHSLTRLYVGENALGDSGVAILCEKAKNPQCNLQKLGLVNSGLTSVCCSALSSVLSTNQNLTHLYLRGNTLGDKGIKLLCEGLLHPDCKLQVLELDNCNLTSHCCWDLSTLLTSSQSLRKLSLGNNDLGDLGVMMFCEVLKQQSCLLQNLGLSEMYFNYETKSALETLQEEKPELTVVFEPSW
NACHT, LRR and PYD domains-containing protein 3 (Mus musculus, UniProt Q8R4B8), sequence (Q8R4B8 whole entry, the tested form may be a part): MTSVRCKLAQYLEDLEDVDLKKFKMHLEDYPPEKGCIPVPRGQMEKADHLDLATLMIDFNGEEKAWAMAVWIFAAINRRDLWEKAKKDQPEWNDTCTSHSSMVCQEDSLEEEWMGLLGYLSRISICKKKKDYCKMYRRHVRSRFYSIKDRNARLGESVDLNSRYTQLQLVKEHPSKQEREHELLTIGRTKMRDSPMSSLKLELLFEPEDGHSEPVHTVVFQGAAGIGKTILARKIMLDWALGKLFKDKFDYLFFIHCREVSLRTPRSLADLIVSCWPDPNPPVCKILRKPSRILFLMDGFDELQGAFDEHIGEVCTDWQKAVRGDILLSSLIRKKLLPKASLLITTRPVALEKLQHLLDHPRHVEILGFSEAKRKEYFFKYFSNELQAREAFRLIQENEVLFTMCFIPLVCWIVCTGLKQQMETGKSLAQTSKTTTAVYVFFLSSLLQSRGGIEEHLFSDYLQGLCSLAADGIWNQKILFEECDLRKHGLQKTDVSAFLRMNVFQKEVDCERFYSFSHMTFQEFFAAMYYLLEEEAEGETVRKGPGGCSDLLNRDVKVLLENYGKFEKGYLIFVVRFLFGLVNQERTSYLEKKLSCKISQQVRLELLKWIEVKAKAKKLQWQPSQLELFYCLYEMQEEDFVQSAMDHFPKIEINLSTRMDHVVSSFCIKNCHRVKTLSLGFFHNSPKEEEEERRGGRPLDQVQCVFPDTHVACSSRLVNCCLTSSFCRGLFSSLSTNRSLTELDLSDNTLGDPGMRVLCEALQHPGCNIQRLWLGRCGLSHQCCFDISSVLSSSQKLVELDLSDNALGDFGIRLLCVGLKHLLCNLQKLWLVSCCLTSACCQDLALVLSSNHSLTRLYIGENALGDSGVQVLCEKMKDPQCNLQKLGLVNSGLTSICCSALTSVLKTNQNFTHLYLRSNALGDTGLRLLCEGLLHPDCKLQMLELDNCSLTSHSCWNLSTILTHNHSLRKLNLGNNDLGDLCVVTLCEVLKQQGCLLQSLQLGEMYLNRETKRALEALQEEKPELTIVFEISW

As a reminder, the IC50 is the point on the concentration scale where inhibition reaches its midpoint. Regarding `Cc1cc(Br)cc(C)c1-n1cc2c(=O)[nH]c(N3C=COCC3)nc2n1`, the IC50 in test [1] is 3 nM.

As for `CC(C)c1nn(CC(=O)Nc2ccc3nncn3c2)c(=O)c2sc(C3CC3)nc12`, the IC50 in test [2] worked out at 4990 nM.

The EC50 is the concentration at which the effect is half-maximal. A high value points to lower potency in that assay. `CN1CCC[C@@H](Nc2nnc(-c3ccc(C(F)(F)F)cc3O)c3ncn(C)c23)C1` gave an EC50 with THP-1 [3] of less than 20 nM.

`CN1CCC[C@@H](Nc2nnc(-c3ccc(C(F)(F)F)cc3O)c3c2ncn3C)C1` yielded a concentration giving a half-maximal response (EC50) with THP-1 [3] of less than 20 nM.

As for `CN1CCC[C@@H](Nc2nnc(-c3ccc(C(F)(F)F)cc3O)c3c2nc(C2CC2)n3C)C1`, the half-maximal effective concentration (EC50) in the test on THP-1 [3] was less than 20 nM.

Consider `Cc1cc2c(c(NC(=O)N[S+](=N)([O-])c3ccccc3)c1-c1ccnc(OC3CCN(C)CC3)c1)CCC2` (stereo not drawn), for which the half-maximal inhibitory concentration (IC50) in test [1] is less than 250 nM.

Regarding `O=C(Nc1c2c(cc3c1CCO3)CCC2)NS(=O)(=O)c1ccn(C2CC2)n1`, the IC50 in test [4] is not above 250 nM.

Regarding `CC(C)c1nn(CC(=O)N[C@H]2C[C@](C)(O)C2)c(=O)c2ccc(Br)cc12`, the concentration for half-maximal inhibition (IC50) is less than 25 nM in test [5] and more than 10000 nM in test [2].

As for `CC(C)c1cc(F)cc(C(C)C)c1NC(=O)N=[S+](N)([O-])c1ccc2ccccc2c1` (stereo not drawn), the IC50 in test [1] is more than 30000 nM.

`CC(C)c1nc2c(C(C)C)nn(CC(=O)Nc3ccc4nncn4c3)c(=O)c2s1`: the IC50 in test [2] was found to be 11500 nM.

On to `CS(=O)(=O)NC(=O)Nc1c(-c2ccnc(OC3CCN(Cc4ccccc4)CC3)c2)ccc2c1CCC2`, for which the half-inhibitory concentration (IC50) in [6] was not above 250 nM.

In the case of `O=C(Nc1c(C2CC2)ccc2c1CCC2)NS(=O)(=O)c1cc2c(o1)C1CCN(CC1)C2`, the IC50 in test [7] was less than 1000 nM.

With `COc1cc(C)c(S(=O)(=O)NC(=O)Nc2c3c(cc4c2CCC4)CCC3)cn1`, the half-maximal inhibitory concentration (IC50) in test [8] was less than 1000 nM.

As to `CC(C)c1nn(C2(C(=O)Nc3ncccn3)CC2)c(=O)cc1-c1cc(F)cc(F)c1`, in test [9], the IC50 stood at 1140 nM.

Turning to `O=S1(=O)c2nnc([nH]2)Nc2c(ccc3c2CCC3)-c2ccnc(c2)OCCCN2CCC3(CC1C3)C2`, the half-inhibitory concentration (IC50) in test [10] was not above 100 nM.

Turning to `CC(C)c1nn(CC(=O)Nc2ccncn2)c(=O)c2cc(I)nn12`, the IC50 in [5] was less than 12 nM; in [2] it was more than 10000 nM.

Turning to `CCc1oc(C(C)C)cc1NC(=O)NS(=O)(=O)C(c1cnn(C)c1)C1CCCN(C)C1` (stereo not drawn), in [6], the IC50 is less than 100 nM.

On to `CN1CCC[C@@H](Nc2nnc(-c3sccc3O)c3c2ncn3C)C1`, for which, in the test on THP-1 [3], the EC50 was more than 1000 nM.

As for `CCC(CC)CN1C(=O)/C(=C/c2ccccc2S(C)(=O)=O)SC1=S`, in test [11], the half-maximal inhibitory concentration (IC50) was determined as 1400 nM.

Turning to `COC(C)(C)Cn1ccc(S(=O)(=O)c2nnc(Nc3c4c(cc5c3CCC5)CCC4)[nH]2)n1`, the IC50 in test [12] is less than 500 nM.

Turning to `COc1cc(-c2ccc3c(c2NC(=O)NS(=O)(=O)c2cn(C(C)C)c(=O)cn2)CCC3)ccn1`, the 50% inhibitory concentration (IC50) in test [13] is less than 1000 nM.

For `CCN1CCC[C@@H](Nc2nc3nc(-c4c(C)cc(Cl)cc4O)ccc3o2)C1`, in the test with THP-1 [14], the IC50 was found to be 0.4 nM.

In the case of `CCNc1cc2c(=O)n(CC(=O)Nc3ccc4nncn4c3)nc(C(C)C)n2n1`, the IC50 in [5] is 24 nM; in [2], 7040 nM.

Regarding `Cn1ncc2ccc(S(=O)(=O)NC(=O)Nc3c4c(cc5c3CCC5)CCC4)cc21`, the IC50 in test [10] was less than 1000 nM.

`CC(C)c1nn(CC(=O)Nc2ncncc2F)c(=O)c2cc(C(F)(F)F)ccc12`: the IC50 in test [9] was more than 50000 nM.

Regarding `CC(C)c1cc(F)cc2c1CC(=O)NS(=O)(=O)c1ccn(n1)C(C)(C)COc1cc-2ccn1`, the IC50 in [12] is not above 100 nM.

As to `CC(C)c1cc(NC(=O)NS(=O)(=O)C(c2cnn(C)c2)C2CCCN(C)C2)c(C(C)C)s1` (stereo not drawn), the half-inhibitory concentration (IC50) in [6] is less than 100 nM.

In the case of `CC1(C)CCc2c1cc1c(c2NC(=O)NS(=O)(=O)c2ccnn2CCCB(O)O)CCC1`, the IC50 in test [15] was less than 1000 nM.

On to `CC(C)c1nn(C(C)C(=O)Nc2ncc(F)cn2)c(=O)c2ccc(Br)cc12` (stereo not drawn), for which the IC50 in [9] came out at 3660 nM.

Take `CN(C)Cc1cc(S(=O)(=O)NC(=O)Nc2c3c(cc4c2CCC4)CCC3)nn1C1CC1`: the IC50 in test [8] is not above 40 nM.
